{"source": "paper PMC7915026", "about": "“Sulfaguanidine Hybrid with Some New Pyridine-2-One Derivatives: Design, Synthesis, and Antimicrobial Activity against Multidrug-Resistant Bacteria as Dual DNA Gyrase and DHFR Inhibitors” (Antibiotics, 2021)", "key": {"P. aeruginosa ATCC 27853": {"system": "P. aeruginosa ATCC 27853", "test": "Inhibition zone, paper disk/agar diffusion", "type": "cell-based", "conditions": "P. aeruginosa; Na = no activity", "source_text": "(§1) The antimicrobial activity performed at the bacteriology laboratory, Botany and Microbiology Department, Faculty of Science, Al-Azhar University, Cairo, Egypt. The inhibition zone (IZ) of the tested derivatives expressed as the diameter (mm) according to the agar plate diffusion method."}, "[1]": {"system": "F. oxysporum (RCMB 008002)", "test": "Inhibition zone, paper disk/agar diffusion", "type": "cell-based", "conditions": "Na = no activity", "source_text": "as §1"}, "E. faecalis ATCC 29212": {"system": "E. faecalis ATCC 29212", "test": "Inhibition zone, paper disk/agar diffusion", "type": "cell-based", "conditions": "E. faecalis; Na = no activity", "source_text": "as §1"}, "C. albicans (ATCC 10231)": {"system": "C. albicans (ATCC 10231)", "test": "Inhibition zone, paper disk/agar diffusion", "type": "cell-based", "conditions": "Na = no activity", "source_text": "as §1"}, "B. subtilis ATCC 6633": {"system": "B. subtilis ATCC 6633", "test": "Inhibition zone, paper disk/agar diffusion", "type": "cell-based", "conditions": "B. subtilis; Na = no activity", "source_text": "as §1"}, "E. coli ATCC 25922": {"system": "E. coli ATCC 25922", "test": "Inhibition zone, paper disk/agar diffusion", "type": "cell-based", "conditions": "E. coli; Na = no activity", "source_text": "as §1"}, "S. typhi ATCC 6539": {"system": "S. typhi ATCC 6539", "test": "Inhibition zone, paper disk/agar diffusion", "type": "cell-based", "conditions": "S. typhi; Na = no activity", "source_text": "as §1"}, "S. aureus ATCC 29213": {"system": "S. aureus ATCC 29213", "test": "Inhibition zone, paper disk/agar diffusion", "type": "cell-based", "conditions": "S. aureus; Na = no activity", "source_text": "as §1"}}}
{"compound": "N#Cc1c(N)cc(N)n(-c2ccc(S(=O)(=O)NC(=N)N)cc2)c1=O", "note": "[Compound 7, N-Carbamimidoyl-4-(4,6-diamino-3-cyano-2-oxopyridin-1(2H)-yl) benzenesulfonamide]", "values": [{"measurement": "Mean Diameter of the Inhibition Zone", "setting": "P. aeruginosa ATCC 27853", "result": "12 ± 0.63", "unit": "mm"}, {"measurement": "Mean Diameter of the Inhibition Zone", "setting": "[1]", "result": "no activity"}, {"measurement": "Mean Diameter of the Inhibition Zone", "setting": "E. faecalis ATCC 29212", "result": "14 ± 0.47", "unit": "mm"}, {"measurement": "Mean Diameter of the Inhibition Zone", "setting": "C. albicans (ATCC 10231)", "result": "13.0 ± 0.20", "unit": "mm"}, {"measurement": "Mean Diameter of the Inhibition Zone", "setting": "B. subtilis ATCC 6633", "result": "13 ± 0.41", "unit": "mm"}, {"measurement": "melting point", "result": 260, "unit": "°C"}]}
{"compound": "N#Cc1c(N)n(-c2ccc(S(=O)(=O)NC(=N)N)cc2)c(=O)c2c(=N)oc3ccccc3c12", "note": "[Compound 12, 4-(2-Amino-1-cyano-5-imino-4-oxo-4H-chromeno[3,4-c]pyridin-3(5H)-yl)-N-cabamimidoylbenzenesulfonamide]", "values": [{"measurement": "Mean Diameter of the Inhibition Zone", "setting": "[1]", "result": "no activity"}, {"measurement": "Mean Diameter of the Inhibition Zone", "setting": "E. faecalis ATCC 29212", "result": "12 ± 0.74", "unit": "mm"}, {"measurement": "Mean Diameter of the Inhibition Zone", "setting": "C. albicans (ATCC 10231)", "result": "12 ± 0.50", "unit": "mm"}, {"measurement": "Mean Diameter of the Inhibition Zone", "setting": "B. subtilis ATCC 6633", "result": "15 ± 0.45", "unit": "mm"}, {"measurement": "Mean Diameter of the Inhibition Zone", "setting": "E. coli ATCC 25922", "result": "14 ± 0.21", "unit": "mm"}, {"measurement": "melting point", "result": "266 to 268", "unit": "°C"}]}
{"compound": "N#Cc1c(-c2ccc(O)cc2)c(C#N)c(=O)n(-c2ccc(S(=O)(=O)NC(=N)N)cc2)c1N", "note": "[Compound 3c, 4-(6-Amino-3,5-dicyano-4-(4-hydroxyphenyl)-2-oxopyridin-1(2H)-yl)-N-carbamimidoylbenzenesulfonamide]", "values": [{"measurement": "Mean Diameter of the Inhibition Zone", "setting": "P. aeruginosa ATCC 27853", "result": "17 ± 0.20", "unit": "mm"}, {"measurement": "Mean Diameter of the Inhibition Zone", "setting": "S. typhi ATCC 6539", "result": "20 ± 0.33", "unit": "mm"}, {"measurement": "Mean Diameter of the Inhibition Zone", "setting": "[1]", "result": "19 ± 0.55", "unit": "mm"}, {"measurement": "Mean Diameter of the Inhibition Zone", "setting": "E. faecalis ATCC 29212", "result": "19 ± 0.33", "unit": "mm"}, {"measurement": "Mean Diameter of the Inhibition Zone", "setting": "C. albicans (ATCC 10231)", "result": "22 ± 0.19", "unit": "mm"}, {"measurement": "melting point", "result": "265 to 268", "unit": "°C"}]}
{"compound": "N#C/C(=C\\c1ccc(O)cc1)C(=O)Nc1ccc(S(=O)(=O)NC(=N)N)cc1", "note": "[Compound 2c, N-(4-(N-Carbamimidoylsulfamoyl)phenyl)-2-cyano-3-(4-hydroxyphenyl) acrylamide]", "values": [{"measurement": "Mean Diameter of the Inhibition Zone", "setting": "P. aeruginosa ATCC 27853", "result": "20 ± 0.42", "unit": "mm"}, {"measurement": "Mean Diameter of the Inhibition Zone", "setting": "S. typhi ATCC 6539", "result": "17 ± 0.24", "unit": "mm"}, {"measurement": "Mean Diameter of the Inhibition Zone", "setting": "[1]", "result": "14 ± 0.5", "unit": "mm"}, {"measurement": "Mean Diameter of the Inhibition Zone", "setting": "E. faecalis ATCC 29212", "result": "17 ± 0.37", "unit": "mm"}, {"measurement": "Mean Diameter of the Inhibition Zone", "setting": "C. albicans (ATCC 10231)", "result": "16 ± 0.52", "unit": "mm"}, {"measurement": "Mean Diameter of the Inhibition Zone", "setting": "B. subtilis ATCC 6633", "result": "20 ± 0.38", "unit": "mm"}, {"measurement": "Mean Diameter of the Inhibition Zone", "setting": "S. aureus ATCC 29213", "result": "21 ± 0.85", "unit": "mm"}, {"measurement": "Mean Diameter of the Inhibition Zone", "setting": "E. coli ATCC 25922", "result": "19 ± 0.75", "unit": "mm"}, {"measurement": "melting point", "result": "256 to 258", "unit": "°C"}]}
